The supplement of paper PMC10307832

Key:
Experiment in all cases: relative viability (nuclei count vs DMSO), 5 days (fraction); higher = more cells survive
Omipalisib + Navitoclax = compound: COc1ncc(-c2ccc3nccc(-c4ccnnc4)c3c2)cc1NS(=O)(=O)c1ccc(F)cc1F [Omipalisib] + CC1(C)CCC(c2ccc(Cl)cc2)=C(CN2CCN(c3ccc(C(=O)NS(=O)(=O)c4ccc(N[C@H](CCN5CCOCC5)CSc5ccccc5)c(S(=O)(=O)C(F)(F)F)c4)cc3)CC2)C1 [Navitoclax] (partner 0.5 µM)
Outline: (§1)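 Lung cancer cell lines in 1536-well plates were dosed by pin tool the day after seeding, either with one drug alone or with a fixed anchor-drug dose plus five library-drug doses (not always all listed) in √10 steps. After 5 days, cells were fixed and their nuclei stained in one step (final 0.05% Triton X-100, 1% formaldehyde, 1 ug/ml Hoechst), then counted on 4× images. Relative viability is the nuclei count in treated wells divided by that in vehicle wells. Values are medians of duplicate plates.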

Omipalisib + Pictilisib = compound: COc1ncc(-c2ccc3nccc(-c4ccnnc4)c3c2)cc1NS(=O)(=O)c1ccc(F)cc1F [Omipalisib] + CS(=O)(=O)N1CCN(Cc2cc3nc(-c4cccc5[nH]ncc45)nc(N4CCOCC4)c3s2)CC1 [Pictilisib] (partner 1 µM)
Outline: as §1

Omipalisib + Alpelisib = compound: COc1ncc(-c2ccc3nccc(-c4ccnnc4)c3c2)cc1NS(=O)(=O)c1ccc(F)cc1F [Omipalisib] + Cc1nc(NC(=O)N2CCC[C@H]2C(N)=O)sc1-c1ccnc(C(C)(C)C(F)(F)F)c1 [Alpelisib] (partner 2 µM)
Outline: as §1

Omipalisib + Linsitinib = compound: COc1ncc(-c2ccc3nccc(-c4ccnnc4)c3c2)cc1NS(=O)(=O)c1ccc(F)cc1F [Omipalisib] + C[C@]1(O)C[C@@H](c2nc(-c3ccc4ccc(-c5ccccc5)nc4c3)c3c(N)nccn32)C1 [Linsitinib] (partner 1 µM)
Outline: as §1

Omipalisib + Vorinostat = compound: COc1ncc(-c2ccc3nccc(-c4ccnnc4)c3c2)cc1NS(=O)(=O)c1ccc(F)cc1F [Omipalisib] + O=C(CCCCCCC(=O)Nc1ccccc1)NO [Vorinostat] (partner 1 µM)
Outline: as §1

Omipalisib = compound: COc1ncc(-c2ccc3nccc(-c4ccnnc4)c3c2)cc1NS(=O)(=O)c1ccc(F)cc1F [Omipalisib]
Outline: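 Cells of lung cancer lines were placed in 1536-well plates and kept overnight at 37 °C. Pinning then delivered five library-drug doses (not always all listed), spaced by √10, onto plates anchored with vehicle, and the cells were left 5 days without changing medium. One step fixed, permeabilised and stained them with Hoechst, and MetaXpress counted nuclei in 4× images. Viability, as a median over plates, is treated-well nuclei divided by vehicle-well nuclei, with acceptance only at control CV below 25% and at least one doubling.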

Cell Line	relative viability (Omipalisib + Navitoclax; first compound 0.0003 µM)	relative viability (Omipalisib + Navitoclax; first compound 0.003 µM)	relative viability (Omipalisib + Navitoclax; first compound 0.03 µM)	relative viability (Omipalisib + Pictilisib; first compound 0.0003 µM)	relative viability (Omipalisib + Pictilisib; first compound 0.003 µM)	relative viability (Omipalisib + Pictilisib; first compound 0.03 µM)	relative viability (Omipalisib + Alpelisib; first compound 0.0003 µM)	relative viability (Omipalisib + Alpelisib; first compound 0.003 µM)	relative viability (Omipalisib + Alpelisib; first compound 0.03 µM)	relative viability (Omipalisib + Linsitinib; first compound 0.0003 µM)	relative viability (Omipalisib + Linsitinib; first compound 0.003 µM)	relative viability (Omipalisib + Linsitinib; first compound 0.03 µM)	relative viability (Omipalisib + Vorinostat; first compound 0.0003 µM)	relative viability (Omipalisib + Vorinostat; first compound 0.003 µM)	relative viability (Omipalisib + Vorinostat; first compound 0.03 µM)	relative viability (Omipalisib; 0.0003 µM)	relative viability (Omipalisib; 0.003 µM)	relative viability (Omipalisib; 0.03 µM)
NCI-H1734	0.763	0.444	0.275	0.461	0.307	0.389	0.582	0.464	0.32	0.731	0.484	0.359	0.683	0.466	0.35	0.918	0.648	0.397
NCI-H1755	1.01	0.848	0.368	0.426	0.353	0.344	0.949	0.878	0.514	1	0.942	0.516	0.747	0.738	0.517	1.01	0.901	0.737
NCI-H1793	0.368	0.29	0.204	0.348	0.344	0.293	0.577	0.435	0.292	0.648	0.416	0.288	0.649	0.438	0.231	0.74	0.514	0.317
NCI-H1915	0.813	0.768	0.789	1.03	0.866	0.862	0.994	1.07	1.03	1.08	1.12	1.01	0.528	0.483	0.432	1.04	0.996	0.952
NCI-H1944	0.975	0.775	0.474	0.363	0.301	0.28	0.884	0.638	0.441	1.21	0.854	0.481	0.469	0.359	0.29	0.856	0.646	0.371
NCI-H1975	1.03	0.635	0.24	0.321	0.277	0.193	0.695	0.518	0.253	0.857	0.614	0.206	0.702	0.458	0.276	0.911	0.672	0.374
NCI-H1993	0.722	0.703	0.618	0.837	0.861	0.912	0.652	0.649	0.672	0.697	0.765	0.589	0.788	0.162	0.378	0.806	0.632	0.623
NCI-H2009	1.22	1.14	0.897	0.752	0.797	0.52	1.16	1.12	0.994	1.13	1.18	0.946	0.674	0.689	0.573	1.06	1.02	0.755
NCI-H2023	0.959	0.633	0.313	0.204	0.181	0.179	0.513	0.523	0.344	0.513	0.342	0.234	0.356	0.454	0.161	0.847	0.535	0.203
NCI-H2085	1.12	0.951	0.509	0.416	0.474	0.436	1.06	0.787	0.36	0.786	0.737	0.275	0.815	0.701	0.436	0.987	1.01	0.495
NCI-H2087	0.918	0.749	0.535	0.916	0.692	0.739	1.19	0.886	0.751	1.15	0.909	0.854	0.683	0.549	0.29	1.02	0.723	0.504
NCI-H2126	0.82	0.594	0.375	0.518	0.463	0.435	0.696	0.583	0.474	0.712	0.644	0.422	0.718	0.442	0.348	0.972	0.687	0.495
NCI-H2228	0.972	0.581	0.204	0.41	0.265	0.407	0.764	0.657	0.251	0.724	0.282	0.211	0.75	0.498	0.162	0.858	0.682	0.352
NCI-H2347	0.764	0.671	0.278	0.682	0.612	0.449	1.05	1.05	0.69	0.892	0.947	0.61	0.638	0.475	0.368	0.972	0.978	0.579
NCI-H2405	0.812	0.618	0.323	0.433	0.389	0.355	0.79	0.633	0.359	0.931	0.68	0.387	1	0.667	0.418	0.982	0.681	0.351
NCI-H3122	1.02	0.991	0.402	0.538	0.472	0.475	0.742	0.63	0.489	1.11	0.699	0.392	0.752	0.713	0.399	0.971	0.956	0.538
PC-3 [JPC-3]	0.781	0.76	0.646	0.816	0.766	0.689	1	0.993	0.863	0.962	0.976	0.92	0.889	0.821	0.613	1.01	1.07	0.912
